Assay [1] concerns the target T1, Acetylcholine receptor subunit beta-like 2 (Drosophila melanogaster, UniProt P25162).
T1 sequence (P25162 whole entry): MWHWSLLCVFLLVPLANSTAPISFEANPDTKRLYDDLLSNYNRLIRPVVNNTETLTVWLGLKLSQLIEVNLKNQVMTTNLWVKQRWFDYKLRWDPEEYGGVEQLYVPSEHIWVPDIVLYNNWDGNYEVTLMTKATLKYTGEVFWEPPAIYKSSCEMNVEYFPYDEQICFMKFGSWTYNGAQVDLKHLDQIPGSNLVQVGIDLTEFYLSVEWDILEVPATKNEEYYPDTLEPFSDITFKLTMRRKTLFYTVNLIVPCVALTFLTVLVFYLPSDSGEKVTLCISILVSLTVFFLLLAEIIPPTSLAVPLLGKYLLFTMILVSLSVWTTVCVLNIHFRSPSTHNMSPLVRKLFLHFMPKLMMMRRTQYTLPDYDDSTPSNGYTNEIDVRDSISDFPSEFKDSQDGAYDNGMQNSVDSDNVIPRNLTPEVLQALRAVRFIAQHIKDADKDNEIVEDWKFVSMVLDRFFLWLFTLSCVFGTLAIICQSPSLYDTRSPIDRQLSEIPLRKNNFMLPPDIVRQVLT
The assay is described as follows: Binding affinity to Drosophila brain nicotinic acetylcholine receptor assessed as [3H]IMI binding by radioligand binding assay.

Assay [2] deals with Neuronal acetylcholine receptor subunit alpha-4 (Gallus gallus, UniProt P09482+P09484). The assay is described as follows: Binding affinity to recombinant Gallus gallus (chicken) alpha4beta2 nicotinic acetylcholine receptor assessed as [3H]NIC binding by radioligand binding assay.
Chain of Neuronal acetylcholine receptor subunit alpha-4 (P09482 whole entry, one chain of several): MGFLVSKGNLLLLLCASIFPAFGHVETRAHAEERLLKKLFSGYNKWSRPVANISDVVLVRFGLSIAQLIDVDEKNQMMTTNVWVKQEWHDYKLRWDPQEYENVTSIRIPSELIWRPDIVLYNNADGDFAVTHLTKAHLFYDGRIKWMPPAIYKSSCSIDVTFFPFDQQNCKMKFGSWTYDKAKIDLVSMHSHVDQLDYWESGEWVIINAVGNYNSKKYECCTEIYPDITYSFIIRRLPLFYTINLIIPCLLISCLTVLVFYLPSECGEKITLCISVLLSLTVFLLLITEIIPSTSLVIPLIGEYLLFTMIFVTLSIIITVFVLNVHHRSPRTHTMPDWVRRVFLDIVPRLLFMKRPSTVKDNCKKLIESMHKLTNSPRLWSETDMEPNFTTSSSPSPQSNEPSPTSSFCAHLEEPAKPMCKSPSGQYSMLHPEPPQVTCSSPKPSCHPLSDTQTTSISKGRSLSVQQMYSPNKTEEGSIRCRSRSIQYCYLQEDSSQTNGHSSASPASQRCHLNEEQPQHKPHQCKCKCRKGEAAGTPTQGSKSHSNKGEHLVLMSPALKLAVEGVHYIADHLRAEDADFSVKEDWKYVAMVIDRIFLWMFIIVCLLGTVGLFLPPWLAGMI
Assay [3] has as its target Soluble acetylcholine receptor (Aplysia californica, UniProt Q8WSF8, Y55W). Nature of the assay: Binding affinity to salt water mollusc Aplysia californica AChBP Y55W mutant assessed as [3H]acetamiprid binding by radioligand binding assay.
For assay [4], the target named is Acetylcholine-binding protein (Lymnaea stagnalis, UniProt P58154). Nature of the assay: Binding affinity to freshwater snail Lymnaea stagnalis AChBP assessed as [3H]EPI binding by radioligand binding assay.
Chain of Acetylcholine-binding protein (P58154 whole entry): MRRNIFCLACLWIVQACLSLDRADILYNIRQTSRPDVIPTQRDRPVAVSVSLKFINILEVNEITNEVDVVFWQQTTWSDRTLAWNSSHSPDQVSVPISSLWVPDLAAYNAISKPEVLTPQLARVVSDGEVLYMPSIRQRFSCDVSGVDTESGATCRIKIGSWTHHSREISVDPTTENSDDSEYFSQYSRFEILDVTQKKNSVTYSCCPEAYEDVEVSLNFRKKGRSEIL

pKi: −log10 of the molar value.

In the case of `O=[N+]([O-])/C=C1\NCCN1Cc1ccc(Cl)nc1`, the pKi in assay [1] is 9.92; in assay [2] it was 7.22; in assay [3] it was 8.77.

Take `C/C(=N\C#N)N(C)Cc1ccc(Cl)nc1`: the pKi in assay [1] was 8.14; in assay [2], 6.17; in assay [4] it was 5.92; in assay [3], 7.49.

Turning to `Clc1ccc(C2CC3CCC2N3)cn1` (racemic) [EPIBATIDINE], the figures for the pKi in assay [1], in assay [4] and in assay [3] were 6.54, 9.52 and 9.00, respectively.

Take `N=C1SCCN1Cc1ccc(Cl)nc1` [DESCYANOTHIACLOPRID]: the pKi is 6.89 in assay [1], 8.92 in assay [2], 7.80 in assay [4] and 9.22 in assay [3].

Regarding `N=C1NCCN1Cc1ccc(Cl)nc1` [DESNITROIMIDACLOPRID], the pKi in assay [1] was 6.00; in assay [2], 8.66; in assay [4] it was 7.74; in assay [3], 7.82.

`O=[N+]([O-])NC1=NCCN1Cc1ccc(Cl)nc1` [IMIDACLOPRID]: the pKi in assay [1] was 8.52; in assay [2], 6.01; in assay [3] it was 7.72.

Regarding `CN1CCC[C@H]1c1cccnc1` [NICOTINE], the pKi was 5.57 in assay [1], 8.72 in assay [2] and 7.52 in assay [3].

In the case of `N#C/N=C1\SCCN1Cc1ccc(Cl)nc1` [THIACLOPRID], the pKi in assay [1] is 8.92; in assay [2], 6.62; in assay [3] it was 8.41.

Broadly, the pKi is the negative decadic logarithm of the Ki, by convention in mol/L.
